Reference: US11839613B2, “Pyrimidine derivatives as PGE2 receptor modulators” (IDORSIA PHARMACEUTICALS LTD, priority 2017, dated 2023)
pIC50: −log10 of the molar value.

Tests used:
EP4 = EP4 (Homo sapiens (Human), UniProt P35408); assay: hEP4 cAMP assay (BT549 breast cancer cells, HTRF cAMP); format: cell-based; conditions: antagonistic activity, PGE2 6 nM
Text: (§1) Human tumor cell lines expressing endogenously either EP4 or EP2 are used and cAMP accumulation in cells upon PGE2 stimulation is monitored. SF295 glioblastoma cells express high endogenous EP2 and no EP4, whereas BT549 breast cancer cells, express high endogenous EP4 levels and very low EP2 levels.
(§2) As a detection method for cAMP the HTRF (homogeneous time resolved fluorescence) Cisbio kit (HTRF cAMP dynamic 2 kit 20'000 tests Cisbio Cat. #62AM4PEC) was used, which is based on a competitive immunoassay using a Cryptate-labeled anti-cAMP antibody and d2-labeled cAMP. Native cAMP produced by cells or unlabeled cAMP (for the standard curve) compete with exogenously added d2-labeled cAMP (acceptor) for binding to monoclonal anti-cAMP-Eu3+Cryptate (donor). A FRET signal (Fluorescence Resonance Energy Transfer) is obtained only if the labeled anti-cAMP antibody binds the d2 labelled cAMP, thus the specific signal (i.e. energy transfer) is inversely proportional to the concentration of cAMP in the standard or sample.
(§3) Cells are counted washed and resuspended in assay buffer (AB; HBSS, 20 mM HEPES, 0.2% BSA; 2 mM IBMX).
Plate is pre-incubated 45 minutes at RT. Subsequently, 2.5 microliters of PGE2 (final conc. 6 nM) are transferred into the assay plate. Plate is incubated 30 minutes at RT.

EP2 = EP2 (Homo sapiens (Human), UniProt P43116); assay: hEP2 cAMP assay (SF295 glioblastoma cells, HTRF cAMP); format: cell-based; conditions: antagonistic activity
Chain of EP2 (P43116 whole entry): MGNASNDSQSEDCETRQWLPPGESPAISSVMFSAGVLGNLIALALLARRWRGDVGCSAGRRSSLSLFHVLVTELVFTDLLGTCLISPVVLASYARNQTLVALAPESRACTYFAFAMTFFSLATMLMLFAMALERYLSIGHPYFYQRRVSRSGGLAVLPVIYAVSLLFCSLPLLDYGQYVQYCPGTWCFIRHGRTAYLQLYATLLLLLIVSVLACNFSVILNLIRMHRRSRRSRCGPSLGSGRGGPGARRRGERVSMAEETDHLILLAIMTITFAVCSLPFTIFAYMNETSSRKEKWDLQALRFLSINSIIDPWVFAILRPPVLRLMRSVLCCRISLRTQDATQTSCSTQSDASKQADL
Text: as §1, §2, §3
Plate is pre-incubated 45 minutes at RT. […] Plate is incubated 30 minutes at RT.

PTGER2 (EP2) = PTGER2 (EP2) (Homo sapiens (Human), UniProt P43116); assay: hEP2 b-arrestin assay (PathHunter HEK 293 PTGER2 b-arrestin cells); format: cell-based; conditions: antagonistic activity, beta-arrestin assay; read-out: hEP2 b-arr IC50
Chain of PTGER2 (EP2) (P43116 whole entry): as above
Procedure: Plate is pre-incubated 15 minutes at 37° C. Then five microliters of PGE2 (final conc. 5 μM) are transferred into the assay plate. Plate is incubated 120 minutes at 37° C.
(each concentration is measured in duplicate)

PTGER4 (EP4) = PTGER4 (EP4) (Homo sapiens (Human), UniProt P35408); assay: cell-based
Chain of PTGER4 (EP4) (P35408 whole entry): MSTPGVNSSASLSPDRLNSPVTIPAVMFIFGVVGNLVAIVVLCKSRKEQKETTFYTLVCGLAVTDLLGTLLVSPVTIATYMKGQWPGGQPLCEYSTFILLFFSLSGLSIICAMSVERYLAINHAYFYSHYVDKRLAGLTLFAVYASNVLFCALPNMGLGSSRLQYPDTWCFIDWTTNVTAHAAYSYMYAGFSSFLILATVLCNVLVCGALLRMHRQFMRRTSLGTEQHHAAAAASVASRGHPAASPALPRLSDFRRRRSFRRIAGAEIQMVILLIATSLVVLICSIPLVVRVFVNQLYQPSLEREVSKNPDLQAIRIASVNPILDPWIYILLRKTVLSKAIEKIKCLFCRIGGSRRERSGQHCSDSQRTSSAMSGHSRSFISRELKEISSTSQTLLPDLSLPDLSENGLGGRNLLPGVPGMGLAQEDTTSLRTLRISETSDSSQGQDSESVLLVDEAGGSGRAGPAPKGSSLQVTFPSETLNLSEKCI

Chain of EP4 (P35408 whole entry): as above

Row | Compound | pIC50 (EP4) | pIC50 (EP2) | pIC50 (PTGER2 (EP2)) | pIC50 (PTGER4 (EP4)) | pIC50 (EP4; BT549 cells)
1 | COc1cc2ccccc2cc1CCNc1cc(-c2cc(OC)c(C(=O)O)c(OC)c2)ncn1 [Ex 300] | 6.20 | 6.51 |  |  | 
2 | Fc1cc2ncccc2c(F)c1CCNc1cc(-c2ccc3[nH]ccc3c2)ncn1 [Ex 330, [2-(5,7-Difluoro-quinolin-6-yl)-ethyl]-[6-(1H-indol-5-yl)-pyrimidin-4-yl]-amine] | 5.98 | 6.60 | 6.80 |  | 
3 | CCOc1cc(-c2cc(NCCc3ccc4[nH]ccc4c3)ncn2)ccc1OCC(=O)O [Ex 225, (2-Ethoxy-4-{6-[2-(1H-indol-5-yl)-ethylamino]-pyrimidin-4-yl}-phenoxy)-acetic acid] | 6.54 | 6.03 |  |  | 
4 | CCOc1cc(-c2cc(NCCc3cc4c(cnn4C)cc3OC)ncn2)ccc1OCC(=O)O [Ex 298] | 6.21 | 6.15 |  |  | 
5 | CCOc1cc(-c2cc(NCCc3c(F)cc4ncccc4c3F)ncn2)ccc1C(=O)O [Ex 304] | 6.19 | 6.39 |  |  | 
6 | Cc1c(CCNc2cc(-c3cc(OCCO)c(C(=O)O)s3)ncn2)ccc2ccccc12 [Ex 48] | 7.66 | 7.18 |  |  | 
7 | CCOc1cc(-c2cc(NCCc3cc4ccccc4cc3Cl)ncn2)ccc1OCC(=O)O [Ex 247] | 6.44 | 6.10 |  |  | 
8 | Cc1cc2c(cc1CCNc1cc(-c3ccc(C(=O)O)c(OC4CCC4)c3)ncn1)OC=CO2 [Ex 288] | 6.28 | 7.07 | 6.81 |  | 
9 | CCOc1cc(-c2cc(NCCc3cc4ccoc4cc3F)ncn2)ccc1C(=O)O [Ex 227, 2-Ethoxy-4-{6-[2-(6-fluoro-benzofuran-5-yl)-ethylamino]-pyrimidin-4-yl}-benzoic acid] | 6.53 | 7.06 | 6.85 |  | 
10 | CCOc1cc(-c2cc(NCCc3cc4c(cnn4C)cc3OC)ncn2)sc1C(=O)O [Ex 251] | 6.43 | 6.88 | 6.98 |  | 
11 | Cn1[nH]c(=O)c2ccc(-c3cc(NCCc4ccc5cc[nH]c5c4)ncn3)cc21 [Ex 249] | 6.43 | 6.77 | 6.71 |  | 
12 | CCOc1cc(-c2cc(NCCc3cc4c(cc3OC(F)F)OCO4)ncn2)ccc1C(=O)O [Ex 325] | 6.05 | 6.48 | 6.36 |  | 
13 | CCOc1cc(-c2cc(NCCc3cc4c(cc3OC)OCO4)ncn2)ccc1OCC(=O)O [Ex 239] | 6.46 | 6.65 | 6.87 |  | 
14 | COc1cc(-c2cc(NCCc3ccc4sccc4c3)ncn2)cc(OC)c1C(=O)O [Ex 320, 4-[6-(2-Benzo[b]thiophen-5-yl-ethylamino)-pyrimidin-4-yl]-2,6-dimethoxy-benzoic acid] | 6.12 | 6.36 |  |  | 
15 | Cc1c(CCNc2cc(-c3ccc(C(=O)O)c(OCCO)c3)ncn2)ccc2ccccc12 [Ex 234] | 6.49 | 6.95 |  |  | 
16 | NC(=O)c1ccc(-c2cc(NCCc3ccc4cc[nH]c4c3)ncn2)s1 [Ex 294, 5-{6-[2-(1H-Indol-6-yl)-ethylamino]-pyrimidin-4-yl}-thiophene-2-carboxylic acid amide] | 6.25 | 6.10 |  |  | 
17 | CCOc1cc(-c2cc(NCCc3cc4ccoc4cc3F)ncn2)ccc1OC(C)C(=O)O (stereo not shown) [Ex 236] | 6.49 | 6.83 | 6.92 |  | 
18 | O=C(O)c1ccc(-c2cc(NCCc3ccc4c(c3)OCCC4)ncn2)cc1OC1CCC1 [Ex 265, 4-[6-(2-Chroman-7-yl-ethylamino)-pyrimidin-4-yl]-2-cyclobutoxy-benzoic acid] | 6.37 | 4.94 |  |  | 
19 | CCOc1cc(-c2cc(NCCc3cc4c(cc3OC)N(C)C(=O)CC4)ncn2)sc1C(=O)O [Ex 210] | 6.60 | 6.10 |  |  | 
20 | CCOc1cc(-c2cc(NCCc3cc4c(cc3C)OCCO4)ncn2)ccc1C(=O)O [Ex 327] | 6.04 | 6.80 | 6.53 |  | 
21 | CCSc1cc(-c2cc(NCCc3ccc4sccc4c3)ncn2)ccc1C(=O)O [Ex 222] | 6.54 | 6.55 |  |  | 
22 | CCOc1cc(-c2cc(NCCc3cc(Cl)c4c(c3)OCCO4)ncn2)ccc1C(=O)O [Ex 324] | 6.07 | 6.05 |  |  | 
23 | CCOc1cc(-c2cc(NCCc3cc4ccccc4cc3OC(F)F)ncn2)ccc1C(=O)O [Ex 211] | 6.60 | 6.24 |  |  | 
24 | CC(C)Oc1cc2ccccc2cc1CCNc1cc(-c2ccc(C(=O)O)c(OC3CCC3)c2)ncn1 [Ex 264] | 6.37 | 4.93 |  |  | 

Row | Compound | pIC50 (EP4) | pIC50 (EP2) | pIC50 (PTGER2 (EP2)) | pIC50 (PTGER4 (EP4)) | pIC50 (EP4; BT549 cells)
25 | c1nc(NCCc2ccc3cc[nH]c3c2)cc(-c2ccc3cc[nH]c3c2)n1 [Ex 267, [2-(1H-Indol-6-yl)-ethyl]-[6-(1H-indol-6-yl)-pyrimidin-4-yl]-amine] | 6.37 | 6.51 |  |  | 
26 | CCOc1cc(-c2cc(NCCc3ccc4c(c3)OCCC4)ncn2)ccc1C(=O)O [Ex 309, 4-[6-(2-Chroman-7-yl-ethylamino)-pyrimidin-4-yl]-2-ethoxy-benzoic acid] | 6.17 | < 4.56 |  |  | 
27 | NC(=O)c1ccc(-c2cc(NCCc3c(F)cc4ncccc4c3F)ncn2)s1 [Example 356, 5-{6-[2-(5,7-Difluoro-quinolin-6-yl)-ethylamino]-pyrimidin-4-yl}-thiophene-2-carboxylic acid amide] | 6.08 | 5.63 |  |  | 
28 | Cc1c(CCNc2cc(-c3ccc(C(=O)O)c(OC4CCC4)c3)ncn2)ccc2cccnc12 [Ex 235] | 6.49 | 6.11 |  |  | 
29 | O=C(O)c1ccc(-c2cc(NCCc3ccc4c(c3)OCCO4)ncn2)cc1OC1CCC1 [Ex 244] | 6.45 | 6.26 |  |  | 
30 | CCOc1cc(-c2cc(NCCc3ccc4ccccc4c3C)ncn2)sc1CC(=O)OC [Ex 316] | 6.14 | 6.10 |  |  | 
31 | CCOc1cc(-c2cc(NCCc3ccc4cc[nH]c4c3)ncn2)ccc1CC(=O)O [Ex 271] | 6.36 | 6.20 |  |  | 
32 | COc1cc2cc(F)oc2cc1CCNc1cc(-c2ccc(C(=O)O)c(OC3CCC3)c2)ncn1 [Ex 280] | 6.31 | 6.29 |  |  | 
33 | COc1cc(-c2cc(NCCc3cc4cccnc4cc3F)ncn2)sc1C1(O)COC1 [Ex 283] | 6.30 | 6.21 |  |  | 
34 | Cc1c(CCNc2cc(-c3ccc(-c4nc(O)no4)cc3)ncn2)ccc2ccccc12 [Ex 302] | 6.28 | 6.42 |  |  | 
35 | CCOc1cc(-c2cc(NCCc3cc4ccccc4cc3OC)ncn2)cc(OC)c1C(=O)O [Ex 282] | 6.30 | 6.53 |  |  | 
36 | CCOc1cc(-c2cc(NCCc3cc4c(cc3OC)OCCO4)ncn2)ccc1OC(C)(C)C(=O)O [Ex 313] | 6.16 | 6.56 |  |  | 
37 | CCOc1cc(-c2cc(NCCc3c(F)cc4ccccc4c3F)ncn2)ccc1CC(=O)O [Ex 107] | 7.12 | 6.02 |  |  | 
38 | CCOc1cc(-c2cc(NCCc3ccc4cc[nH]c4c3)ncn2)ccc1C(=O)O [Ex 259, 2-Ethoxy-4-{6-[2-(1H-indol-6-yl)-ethylamino]-pyrimidin-4-yl}-benzoic acid] | 6.40 | 6.52 |  |  | 
39 | Oc1c(F)cc(-c2cc(NCCc3ccc4cc[nH]c4c3)ncn2)cc1F [Ex 307, 2,6-Difluoro-4-{6-[2-(1H-indol-6-yl)-ethylamino]-pyrimidin-4-yl}-phenol] | 6.18 | 6.17 |  |  | 
40 | Cc1c(Cl)c(CCNc2cc(-c3ccc(C(=O)O)c(OC4CCC4)c3)ncn2)cc2cccnc12 [Ex 263] | 6.37 | 6.28 |  |  | 
41 | O=C(O)c1coc2cc(-c3cc(NCCc4ccc5sccc5c4)ncn3)ccc12 [Example 467, 6-[6-(2-Benzo[b]thiophen-5-yl-ethylamino)-pyrimidin-4-yl]-benzofuran-3-carboxylic acid] |  |  | 6.38 | 6.73 | 6.81
42 | CCOc1cc(-c2cc(NCCc3cc4cccnc4c(F)c3Cl)ncn2)ccc1OCC(=O)O [Ex 301] | 6.20 | 6.37 |  |  | 
43 | CCOc1cc(-c2cc(NCCc3ccc4sccc4c3)ncn2)ccc1OC(C)(C)C(=O)O [Ex 321] | 6.11 | 6.25 |  |  | 
44 | CCOc1cc2ccccc2cc1CCNc1cc(-c2ccc(OC(C)(C)C(=O)O)c(OCC)c2)ncn1 [Ex 245] | 6.45 | 6.52 |  |  | 
45 | O=C(O)c1ccc(-c2cc(NCCc3ccc4[nH]ccc4c3)ncn2)cc1OC1CCC1 [Ex 322, 2-Cyclobutoxy-4-{6-[2-(1H-indol-5-yl)-ethylamino]-pyrimidin-4-yl}-benzoic acid] | 6.09 | 6.09 |  |  | 
46 | O=C(O)c1ccc(-c2cc(NCCc3cc(Cl)c4c(c3)OCCO4)ncn2)cc1OC1CCC1 [Ex 246] | 6.44 | 6.27 |  |  | 
47 | CCOc1cc(-c2cc(NCCc3ccc4ccccc4c3Cl)ncn2)ccc1C(=O)O [Ex 260] | 6.39 | 6.06 |  |  | 
48 | CCOc1cc(-c2cc(NCCc3cc4ccccc4cc3OC(C)C)ncn2)ccc1CC(=O)O [Ex 258] | 6.41 | 5.44 |  |  | 
